{
  "source": "paper PMC6120666",
  "about": "(The EMBO Journal, 2018)",
  "experiment_in_all_cases": "Drug affinity chromatography with c-ponatinib and LC-MS/MS (ponatinib interactome)",
  "type_in_all_cases": "binding",
  "key": {"[1]": {"target": "T1, proteins of U2OS cell lysate (Homo sapiens, UniProt O95232)", "T1 construct": "Proteins enriched by c-ponatinib from U2OS cell lysate; endogenous in cells; host or cells: U2OS cell lysate", "T1 sequence (O95232 whole entry)": "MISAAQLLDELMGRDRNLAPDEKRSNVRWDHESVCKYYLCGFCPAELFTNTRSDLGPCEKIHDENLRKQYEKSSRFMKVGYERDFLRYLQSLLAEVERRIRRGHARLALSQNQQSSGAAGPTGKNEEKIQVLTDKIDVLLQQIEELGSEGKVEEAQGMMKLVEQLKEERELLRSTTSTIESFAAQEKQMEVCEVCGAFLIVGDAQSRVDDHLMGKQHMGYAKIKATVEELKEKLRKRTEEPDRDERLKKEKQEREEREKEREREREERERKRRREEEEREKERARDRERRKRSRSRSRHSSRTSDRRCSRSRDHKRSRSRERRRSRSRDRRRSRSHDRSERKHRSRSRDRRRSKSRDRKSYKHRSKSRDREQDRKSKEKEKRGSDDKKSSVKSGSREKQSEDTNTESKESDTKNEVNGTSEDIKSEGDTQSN", "conditions": "LUC7L3, Luc7-like protein 3", "procedure,_shortened": "(§1)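 U2OS cell lysate in NP-40 lysis buffer (2 mg protein per pulldown) was incubated with amine-derivatized NHS beads for 2 h at 4 °C. Bound proteins were washed, eluted with 100 mM formic acid, reduced, alkylated and trypsin-digested, then identified by nano-UPLC–MS/MS on Orbitrap instruments with a 60 min gradient.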"}, "[2]": {"target": "T2, proteins of U2OS cell lysate (Homo sapiens, UniProt Q92616)", "T2 construct": "Proteins enriched by c-ponatinib from U2OS cell lysate; endogenous in cells; host or cells: U2OS cell lysate", "conditions": "GCN1L1, Translational activator GCN1", "procedure,_shortened": "as §1"}, "[3]": {"target": "T3, proteins of U2OS cell lysate (Homo sapiens, UniProt O14974)", "T3 construct": "Proteins enriched by c-ponatinib from U2OS cell lysate; endogenous in cells; host or cells: U2OS cell lysate", "T3 sequence (O14974 whole entry)": "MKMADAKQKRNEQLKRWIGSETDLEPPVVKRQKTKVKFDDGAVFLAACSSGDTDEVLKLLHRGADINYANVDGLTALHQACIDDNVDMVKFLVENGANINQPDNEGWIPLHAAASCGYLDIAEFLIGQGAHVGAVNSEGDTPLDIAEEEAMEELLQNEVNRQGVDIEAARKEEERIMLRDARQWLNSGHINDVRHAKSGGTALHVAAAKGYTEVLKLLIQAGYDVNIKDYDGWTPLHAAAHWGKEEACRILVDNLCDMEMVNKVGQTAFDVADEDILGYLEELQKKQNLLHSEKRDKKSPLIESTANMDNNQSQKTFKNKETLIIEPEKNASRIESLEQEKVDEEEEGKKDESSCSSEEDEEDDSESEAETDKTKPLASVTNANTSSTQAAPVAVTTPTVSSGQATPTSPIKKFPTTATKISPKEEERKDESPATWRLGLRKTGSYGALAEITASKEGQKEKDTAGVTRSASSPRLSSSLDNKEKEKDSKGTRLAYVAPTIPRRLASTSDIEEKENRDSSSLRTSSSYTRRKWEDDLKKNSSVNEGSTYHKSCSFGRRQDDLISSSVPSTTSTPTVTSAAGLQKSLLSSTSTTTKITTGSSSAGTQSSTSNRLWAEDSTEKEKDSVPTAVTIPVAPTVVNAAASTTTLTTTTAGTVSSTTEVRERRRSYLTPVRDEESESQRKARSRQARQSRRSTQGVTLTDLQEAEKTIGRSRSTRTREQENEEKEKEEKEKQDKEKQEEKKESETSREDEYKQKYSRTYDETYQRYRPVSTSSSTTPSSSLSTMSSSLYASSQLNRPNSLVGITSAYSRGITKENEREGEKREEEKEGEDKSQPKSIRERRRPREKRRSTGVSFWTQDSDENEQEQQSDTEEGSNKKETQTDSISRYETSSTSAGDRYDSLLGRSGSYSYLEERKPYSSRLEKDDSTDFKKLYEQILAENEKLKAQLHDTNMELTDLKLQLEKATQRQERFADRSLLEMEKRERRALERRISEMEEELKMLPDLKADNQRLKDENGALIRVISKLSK", "conditions": "PPP1R12A, Protein phosphatase 1 regulatory subunit 12A", "procedure,_shortened": "as §1"}, "[4]": {"target": "T4, proteins of U2OS cell lysate (Homo sapiens, UniProt Q9NWB6)", "T4 construct": "Proteins enriched by c-ponatinib from U2OS cell lysate; endogenous in cells; host or cells: U2OS cell lysate", "T4 sequence (Q9NWB6 whole entry)": "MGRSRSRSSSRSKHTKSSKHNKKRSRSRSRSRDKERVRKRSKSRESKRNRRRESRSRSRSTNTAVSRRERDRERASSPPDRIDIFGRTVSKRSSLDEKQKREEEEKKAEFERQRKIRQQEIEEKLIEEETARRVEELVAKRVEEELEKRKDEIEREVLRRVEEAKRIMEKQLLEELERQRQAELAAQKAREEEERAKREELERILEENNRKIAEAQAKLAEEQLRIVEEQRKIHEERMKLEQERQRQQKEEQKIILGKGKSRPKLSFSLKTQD", "conditions": "ARGLU1, Arginine and glutamate-rich protein 1", "procedure,_shortened": "as §1"}, "[5]": {"target": "T5, proteins of U2OS cell lysate (Homo sapiens, UniProt Q92973)", "T5 construct": "Proteins enriched by c-ponatinib from U2OS cell lysate; endogenous in cells; host or cells: U2OS cell lysate", "conditions": "TNPO1, Transportin-1", "procedure,_shortened": "as §1"}, "[6]": {"target": "T6, proteins of U2OS cell lysate (Homo sapiens, UniProt P36542)", "T6 construct": "Proteins enriched by c-ponatinib from U2OS cell lysate; endogenous in cells; host or cells: U2OS cell lysate", "T6 sequence (P36542 26-298)": "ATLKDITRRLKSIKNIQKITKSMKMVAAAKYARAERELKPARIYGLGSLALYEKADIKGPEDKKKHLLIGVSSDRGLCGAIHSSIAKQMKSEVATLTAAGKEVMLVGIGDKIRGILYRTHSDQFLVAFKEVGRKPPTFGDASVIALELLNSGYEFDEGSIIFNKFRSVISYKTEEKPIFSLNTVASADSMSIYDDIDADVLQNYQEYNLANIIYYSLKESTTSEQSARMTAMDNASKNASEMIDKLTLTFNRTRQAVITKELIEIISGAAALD", "conditions": "ATP5C1, ATP synthase subunit gamma, mitochondrial", "procedure,_shortened": "as §1"}, "[7]": {"target": "T7, proteins of U2OS cell lysate (Homo sapiens, UniProt P04792)", "T7 construct": "Proteins enriched by c-ponatinib from U2OS cell lysate; endogenous in cells; host or cells: U2OS cell lysate", "T7 sequence (P04792 whole entry)": "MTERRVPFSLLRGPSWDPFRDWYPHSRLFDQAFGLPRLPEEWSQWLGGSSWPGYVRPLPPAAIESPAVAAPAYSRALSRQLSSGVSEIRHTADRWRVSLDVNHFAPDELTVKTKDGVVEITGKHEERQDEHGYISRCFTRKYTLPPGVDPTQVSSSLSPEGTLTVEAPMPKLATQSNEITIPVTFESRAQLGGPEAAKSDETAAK", "conditions": "HSPB1, Heat shock protein beta-1", "procedure,_shortened": "as §1"}, "[8]": {"target": "T8, proteins of U2OS cell lysate (Homo sapiens, UniProt O00264)", "T8 construct": "Proteins enriched by c-ponatinib from U2OS cell lysate; endogenous in cells; host or cells: U2OS cell lysate", "conditions": "PGRMC1, Membrane-associated progesterone receptor component 1", "procedure,_shortened": "as §1"}, "[9]": {"target": "T9, proteins of U2OS cell lysate (Homo sapiens, UniProt P49759)", "T9 construct": "Proteins enriched by c-ponatinib from U2OS cell lysate; endogenous in cells; host or cells: U2OS cell lysate", "T9 sequence (P49759 whole entry)": "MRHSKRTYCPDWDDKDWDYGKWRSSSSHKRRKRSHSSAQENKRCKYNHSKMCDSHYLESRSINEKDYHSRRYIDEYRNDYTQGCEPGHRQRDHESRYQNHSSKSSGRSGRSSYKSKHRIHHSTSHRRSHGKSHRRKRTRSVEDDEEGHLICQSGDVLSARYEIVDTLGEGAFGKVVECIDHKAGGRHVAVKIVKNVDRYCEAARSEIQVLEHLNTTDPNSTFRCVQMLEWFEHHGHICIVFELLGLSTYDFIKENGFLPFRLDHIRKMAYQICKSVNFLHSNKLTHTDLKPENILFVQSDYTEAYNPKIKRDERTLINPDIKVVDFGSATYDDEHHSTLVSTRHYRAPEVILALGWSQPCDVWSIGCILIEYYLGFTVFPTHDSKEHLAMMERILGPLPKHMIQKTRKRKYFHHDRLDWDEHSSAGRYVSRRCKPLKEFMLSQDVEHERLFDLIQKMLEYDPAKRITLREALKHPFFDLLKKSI", "conditions": "CLK1, Dual specificity protein kinase CLK1", "procedure,_shortened": "as §1"}, "[10]": {"target": "T10, proteins of U2OS cell lysate (Homo sapiens, UniProt P04843)", "T10 construct": "Proteins enriched by c-ponatinib from U2OS cell lysate; endogenous in cells; host or cells: U2OS cell lysate", "conditions": "RPN1, Dolichyl-diphosphooligosaccharide--protein glycosyltransferase subunit 1", "procedure,_shortened": "as §1"}, "[11]": {"target": "T11, proteins of U2OS cell lysate (Homo sapiens, UniProt P62081)", "T11 construct": "Proteins enriched by c-ponatinib from U2OS cell lysate; endogenous in cells; host or cells: U2OS cell lysate", "conditions": "RPS7, 40S ribosomal protein S7", "procedure,_shortened": "as §1"}, "[12]": {"target": "T12, proteins of U2OS cell lysate (Homo sapiens, UniProt Q02218)", "T12 construct": "Proteins enriched by c-ponatinib from U2OS cell lysate; endogenous in cells; host or cells: U2OS cell lysate", "T12 sequence (Q02218 41-1023)": "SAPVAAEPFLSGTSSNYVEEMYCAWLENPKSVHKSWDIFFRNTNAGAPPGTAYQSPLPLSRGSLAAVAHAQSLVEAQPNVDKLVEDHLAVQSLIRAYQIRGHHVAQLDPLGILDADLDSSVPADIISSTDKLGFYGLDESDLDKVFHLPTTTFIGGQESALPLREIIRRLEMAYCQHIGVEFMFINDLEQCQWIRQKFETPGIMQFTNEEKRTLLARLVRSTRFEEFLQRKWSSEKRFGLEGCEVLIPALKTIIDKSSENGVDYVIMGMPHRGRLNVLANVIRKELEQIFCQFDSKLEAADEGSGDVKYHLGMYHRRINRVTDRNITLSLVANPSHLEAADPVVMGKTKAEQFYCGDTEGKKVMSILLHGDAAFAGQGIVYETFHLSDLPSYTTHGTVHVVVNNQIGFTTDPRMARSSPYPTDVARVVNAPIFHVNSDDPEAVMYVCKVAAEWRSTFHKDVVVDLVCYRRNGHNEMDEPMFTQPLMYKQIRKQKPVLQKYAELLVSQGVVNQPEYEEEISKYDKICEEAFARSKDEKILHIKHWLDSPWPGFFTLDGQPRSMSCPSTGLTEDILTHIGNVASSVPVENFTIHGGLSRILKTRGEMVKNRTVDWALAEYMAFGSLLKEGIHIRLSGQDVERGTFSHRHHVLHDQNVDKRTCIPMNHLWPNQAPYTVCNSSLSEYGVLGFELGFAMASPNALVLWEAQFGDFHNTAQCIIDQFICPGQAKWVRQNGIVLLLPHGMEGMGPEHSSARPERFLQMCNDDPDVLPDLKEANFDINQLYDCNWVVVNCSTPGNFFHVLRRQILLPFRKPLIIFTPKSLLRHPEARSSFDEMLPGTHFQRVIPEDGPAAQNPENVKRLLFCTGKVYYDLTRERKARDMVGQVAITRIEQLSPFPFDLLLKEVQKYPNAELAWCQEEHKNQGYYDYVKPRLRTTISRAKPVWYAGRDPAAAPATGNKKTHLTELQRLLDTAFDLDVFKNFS", "conditions": "OGDH;OGDHL, 2-oxoglutarate dehydrogenase, mitochondrial", "procedure,_shortened": "as §1"}, "[13]": {"target": "T13, proteins of U2OS cell lysate (Homo sapiens, UniProt Q07065)", "T13 construct": "Proteins enriched by c-ponatinib from U2OS cell lysate; endogenous in cells; host or cells: U2OS cell lysate", "conditions": "CKAP4, Cytoskeleton-associated protein 4", "procedure,_shortened": "as §1"}, "[14]": {"target": "T14, proteins of U2OS cell lysate (Homo sapiens, UniProt P07305)", "T14 construct": "Proteins enriched by c-ponatinib from U2OS cell lysate; endogenous in cells; host or cells: U2OS cell lysate", "T14 sequence (P07305 whole entry)": "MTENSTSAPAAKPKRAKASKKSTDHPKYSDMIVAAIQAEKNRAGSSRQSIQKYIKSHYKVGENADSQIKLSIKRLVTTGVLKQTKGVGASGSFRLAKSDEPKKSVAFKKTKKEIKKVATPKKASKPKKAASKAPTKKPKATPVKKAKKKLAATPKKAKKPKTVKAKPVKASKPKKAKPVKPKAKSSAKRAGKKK", "conditions": "H1F0, Histone H1.0", "procedure,_shortened": "as §1"}, "[15]": {"target": "T15, proteins of U2OS cell lysate (Homo sapiens, UniProt P16615)", "T15 construct": "Proteins enriched by c-ponatinib from U2OS cell lysate; endogenous in cells; host or cells: U2OS cell lysate", "conditions": "ATP2A2, Sarcoplasmic/endoplasmic reticulum calcium ATPase 2", "procedure,_shortened": "as §1"}, "[16]": {"target": "T16, proteins of U2OS cell lysate (Homo sapiens, UniProt P49368)", "T16 construct": "Proteins enriched by c-ponatinib from U2OS cell lysate; endogenous in cells; host or cells: U2OS cell lysate", "conditions": "CCT3, T-complex protein 1 subunit gamma", "procedure,_shortened": "as §1"}, "[17]": {"target": "T17, proteins of U2OS cell lysate (Homo sapiens, UniProt P05556)", "T17 construct": "Proteins enriched by c-ponatinib from U2OS cell lysate; endogenous in cells; host or cells: U2OS cell lysate", "conditions": "ITGB1, Integrin beta-1", "procedure,_shortened": "as §1"}, "[18]": {"target": "T18, proteins of U2OS cell lysate (Homo sapiens, UniProt Q9BSJ8)", "T18 construct": "Proteins enriched by c-ponatinib from U2OS cell lysate; endogenous in cells; host or cells: U2OS cell lysate", "T18 sequence (Q9BSJ8 whole entry)": "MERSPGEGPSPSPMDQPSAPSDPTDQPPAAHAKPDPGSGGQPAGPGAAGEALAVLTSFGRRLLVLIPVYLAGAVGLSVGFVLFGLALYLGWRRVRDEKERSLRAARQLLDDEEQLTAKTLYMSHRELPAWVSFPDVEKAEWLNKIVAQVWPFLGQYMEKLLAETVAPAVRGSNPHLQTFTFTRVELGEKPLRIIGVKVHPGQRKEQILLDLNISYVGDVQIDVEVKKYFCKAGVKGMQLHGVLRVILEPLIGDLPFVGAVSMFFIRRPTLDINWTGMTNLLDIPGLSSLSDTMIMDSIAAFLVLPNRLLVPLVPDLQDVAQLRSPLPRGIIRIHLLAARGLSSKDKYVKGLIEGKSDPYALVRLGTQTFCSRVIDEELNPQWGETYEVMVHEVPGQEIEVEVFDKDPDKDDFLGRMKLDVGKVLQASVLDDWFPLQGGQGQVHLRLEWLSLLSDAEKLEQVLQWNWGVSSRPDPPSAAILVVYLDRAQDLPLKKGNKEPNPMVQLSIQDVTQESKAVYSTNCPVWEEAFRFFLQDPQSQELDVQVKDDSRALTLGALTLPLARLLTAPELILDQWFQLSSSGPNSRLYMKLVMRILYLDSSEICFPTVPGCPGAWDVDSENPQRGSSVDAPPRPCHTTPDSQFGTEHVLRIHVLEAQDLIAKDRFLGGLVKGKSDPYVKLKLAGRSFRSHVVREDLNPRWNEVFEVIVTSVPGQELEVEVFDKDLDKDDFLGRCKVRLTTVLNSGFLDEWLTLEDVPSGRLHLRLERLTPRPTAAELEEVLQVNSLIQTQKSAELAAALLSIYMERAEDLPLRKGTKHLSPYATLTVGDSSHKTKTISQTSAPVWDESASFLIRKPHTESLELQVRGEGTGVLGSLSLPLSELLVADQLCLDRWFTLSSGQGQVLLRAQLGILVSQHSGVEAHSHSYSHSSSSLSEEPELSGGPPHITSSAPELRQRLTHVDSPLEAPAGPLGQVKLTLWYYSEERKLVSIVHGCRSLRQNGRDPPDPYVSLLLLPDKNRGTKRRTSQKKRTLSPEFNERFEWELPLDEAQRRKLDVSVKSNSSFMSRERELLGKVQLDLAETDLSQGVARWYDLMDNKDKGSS", "conditions": "ESYT1, Extended synaptotagmin-1", "procedure,_shortened": "as §1"}, "[19]": {"target": "T19, proteins of U2OS cell lysate (Homo sapiens, UniProt P25787)", "T19 construct": "Proteins enriched by c-ponatinib from U2OS cell lysate; endogenous in cells; host or cells: U2OS cell lysate", "conditions": "captured protein PSMA2, Rank 214", "procedure,_shortened": "as §1"}},
  "data": [
    {"compound": "Cc1ccc(C(=O)Nc2ccc(CN3CCN(C)CC3)c(C(F)(F)F)c2)cc1C#Cc1cnc2cccnn12", "note": "[PON]", "values": [
      {"measurement": "Average LFQ PON_WT", "setting": "[1]", "value": 20.3652},
      {"measurement": "Average LFQ PON_WT", "setting": "[2]", "value": 23.5357},
      {"measurement": "Average LFQ PON_WT", "setting": "[3]", "value": 20.7589},
      {"measurement": "Average LFQ PON_WT", "setting": "[4]", "value": 21.1214},
      {"measurement": "Average LFQ PON_WT", "setting": "[5]", "value": 24.7772},
      {"measurement": "Average LFQ PON_WT", "setting": "[6]", "value": 21.058},
      {"measurement": "Average LFQ PON_WT", "setting": "[7]", "value": 25.081},
      {"measurement": "Average LFQ PON_WT", "setting": "[8]", "value": 23.2724},
      {"measurement": "Average LFQ PON_WT", "setting": "[9]", "value": 19.0546},
      {"measurement": "Average LFQ PON_WT", "setting": "[10]", "value": 23.8993},
      {"measurement": "Average LFQ PON_WT", "setting": "[11]", "value": 20.8944},
      {"measurement": "Average LFQ PON_WT", "setting": "[12]", "value": 22.0277},
      {"measurement": "Average LFQ PON_WT", "setting": "[13]", "value": 21.3006},
      {"measurement": "Average LFQ PON_WT", "setting": "[14]", "value": 21.4215},
      {"measurement": "Average LFQ PON_WT", "setting": "[15]", "value": 20.9825},
      {"measurement": "Average LFQ PON_WT", "setting": "[16]", "value": 23.8873},
      {"measurement": "Average LFQ PON_WT", "setting": "[17]", "value": 20.3187},
      {"measurement": "Average LFQ PON_WT", "setting": "[18]", "value": 18.8901}
    ]},
    {"compound": "Cc1ccc(C(=O)Nc2ccc(CN3CCN(CCCN)CC3)c(C(F)(F)F)c2)cc1C#Cc1cnc2cccnn12", "note": "[c-ponatinib, reference compound]", "values": [
      {"measurement": "Average LFQ intensity", "setting": "[19]", "value": 21.6987}
    ]}
  ]
}
